Legend:
Botrytis cinerea = assay: Test Example B: Gray mold on tomato; conditions: for Test B control value class: class of control value
Magnaporthe grisea = assay: whole plant or invertebrate; assay type: in vivo; conditions: for Test A control value class: class of control value
Plasmopara viticola = assay: Test Example G: Downy mildew on vine; conditions: for Test G control value: 7 to 10 days after inoculation; for Test G control value class: Downy mildew on vine (Neomuscat), 2.5 ml/pot, assessed 7 to 10 days after inoculation
Puccinia recondita = assay: Test Example E: Brown rust on wheat; assay type: in vivo
Phytophthora infestans = assay: whole plant or invertebrate; assay type: in vivo; conditions: for Test F control value class: class of control value
Alternaia brassicicola = assay: Test Example C: Alternaria sooty spot on cabbage; assay type: in vivo
Excerpt: Seeds of a test plant (cabbage variety: Shikidori) were planted and cultivated until the cotyledons extended.
<Control Value> Control value=100{1−(n/3)}

[1] = system: Blumeria graminis f. sp. hordei; assay: Test Example D: Powdery mildew on barley; conditions: for Test D control value class: class of control value
[2] = system: Colletotrichum orbiculare; assay: Test Example H: Anthracnose on cucumber; conditions: for Test H control value: 6 to 10 days after inoculation; for Test H control value class: Anthracnose on cucumber (Sagami Hanjiro), 2.5 ml/pot, assessed 6 to 10 days after inoculation
[3] = Gray mold on tomato, control value class
[4] = Blast on rice, control value class
[5] = Downy mildew on vine, 250 ppm spray
[6] = Brown rust on wheat, control value class
[7] = Late blight on tomato, control value class
[8] = Alternaria sooty spot on cabbage, control value class
[9] = Powdery mildew on barley, control value class
[10] = Anthracnose on cucumber, 250 ppm spray
[11] = 250 ppm drug solution sprayed on test plant
[12] = 250 ppm drug solution sprayed (2.5 ml/pot), grape Neomuscat
[13] = 250 ppm drug solution sprayed (2.5 ml/pot), cucumber Sagami Hanjiro
[14] = Brown rust on wheat, class of control value
[15] = Alternaria sooty spot on cabbage, class of control value

SMILES | Test B control value (Botrytis cinerea; [3]) | Test A control value (Magnaporthe grisea; [4]) | Test G control value (Plasmopara viticola; [5]) | Test E control value (Puccinia recondita; [6]) | Test F control value (Phytophthora infestans; [7]) | Test C control value (Alternaia brassicicola; [8]) | Test D control value [1, 9] | Test H control value [2, 10] | further results
CCN1C(=O)CCC(C)=C1c1ccc(F)cc1Cl [compound 278] | L (50% or less control value) | L (50% or less control value) | L (50% or less control value) | L (50% or less control value) | H (more than 50% control value) | L (50% or less control value) | L (50% or less control value) | H (more than 50% control value) | –
CCCc1cc(Br)c(=O)n(CC(F)F)c1-c1c(F)cccc1F [compound 493] | – | – | – | – | – | – | – | – | Test B control value (Botrytis cinerea; [11]): H (more than 50% control value); Test A control value (Magnaporthe grisea; [11]): H (more than 50% control value); Test G control value (Plasmopara viticola; [12]): H (more than 50% control value); Test E control value (Puccinia recondita; [11]): H (more than 50% control value); Test F control value (Phytophthora infestans; [11]): L (50% or less control value); Test C control value (Alternaia brassicicola; [11]): H (more than 50% control value); Test D control value [1, 11]: H (more than 50% control value); Test H control value [2, 13]: H (more than 50% control value)
CCCOC(C)(c1cc(Cl)c(=O)n(CC)c1-c1ccc(OC)cc1)C(C)C (stereo not drawn) [compound 248] | L (50% or less control value) | H (more than 50% control value) | L (50% or less control value) | L (50% or less control value) | L (50% or less control value) | L (50% or less control value) | L (50% or less control value) | L (50% or less control value) | –
CCC(OC)c1cc(Cl)c(=O)n(C)c1-c1c(F)cc(F)cc1F (stereo not drawn) [compound 502] | – | – | – | – | – | – | – | – | Test B control value (Botrytis cinerea; [11]): H (more than 50% control value); Test A control value (Magnaporthe grisea; [11]): H (more than 50% control value); Test G control value (Plasmopara viticola; [12]): H (more than 50% control value); Test E control value (Puccinia recondita; [11]): H (more than 50% control value); Test F control value (Phytophthora infestans; [11]): L (50% or less control value); Test C control value (Alternaia brassicicola; [11]): H (more than 50% control value); Test D control value [1, 11]: H (more than 50% control value); Test H control value [2, 13]: H (more than 50% control value)
CCn1c(-c2c(F)cc(F)cc2F)c(C(=O)C2CCCC2)cc(Cl)c1=O [compound 232] | H (more than 50% control value) | H (more than 50% control value) | L (50% or less control value) | H (more than 50% control value) | L (50% or less control value) | H (more than 50% control value) | H (more than 50% control value) | L (50% or less control value) | –
C#CCOc1cc(F)c(-c2c(CCC)cc(Cl)c(=O)n2CC)c(F)c1 [compound 463] | – | – | – | – | – | – | – | – | Test B control value (Botrytis cinerea; [11]): H (more than 50% control value); Test A control value (Magnaporthe grisea; [11]): H (more than 50% control value); Test G control value (Plasmopara viticola; [12]): H (more than 50% control value); Test E control value (Puccinia recondita; [11]): H (more than 50% control value); Test F control value (Phytophthora infestans; [11]): L (50% or less control value); Test C control value (Alternaia brassicicola; [11]): H (more than 50% control value); Test D control value [1, 11]: H (more than 50% control value); Test H control value [2, 13]: H (more than 50% control value)
CCn1c(-c2ccc(C#N)cc2)c(C(C)(OC)C(C)C)cc(Cl)c1=O (stereo not drawn) [compound 250] | H (more than 50% control value) | L (50% or less control value) | L (50% or less control value) | H (more than 50% control value) | L (50% or less control value) | L (50% or less control value) | L (50% or less control value) | L (50% or less control value) | –
CCC(C)c1ccc(=O)n(CC)c1-c1c(F)cc(F)cc1F (stereo not drawn) [compound 31] | – | – | – | – | – | – | – | – | Test B control value class (Botrytis cinerea; Gray mold on tomato): H (more than 50% control value); Test A control value class (Magnaporthe grisea; Blast on rice): H (more than 50% control value); Test G control value class (Plasmopara viticola; 250 ppm spray): H (more than 50% control value); Test E control value class (Puccinia recondita; [14]): H (more than 50% control value); Test F control value class (Phytophthora infestans; Late blight on tomato): L (50% or less control value); Test C control value class (Alternaia brassicicola; [15]): H (more than 50% control value); Test D control value class ([1]; Powdery mildew on barley): H (more than 50% control value); Test H control value class ([2]; 250 ppm spray): H (more than 50% control value)
CC#CCOc1cc(F)c(-c2c(CCC)cc(Br)c(=O)n2CC)c(F)c1 [compound 462] | – | – | – | – | – | – | – | – | Test B control value (Botrytis cinerea; [11]): H (more than 50% control value); Test A control value (Magnaporthe grisea; [11]): L (50% or less control value); Test G control value (Plasmopara viticola; [12]): L (50% or less control value); Test E control value (Puccinia recondita; [11]): H (more than 50% control value); Test F control value (Phytophthora infestans; [11]): H (more than 50% control value); Test C control value (Alternaia brassicicola; [11]): H (more than 50% control value); Test D control value [1, 11]: L (50% or less control value); Test H control value [2, 13]: H (more than 50% control value)
CCc1cc(Br)c(=O)n(CC)c1-c1ccc(OC)cc1Cl [compound 328] | H (more than 50% control value) | H (more than 50% control value) | H (more than 50% control value) | H (more than 50% control value) | L (50% or less control value) | H (more than 50% control value) | L (50% or less control value) | H (more than 50% control value) | –
CCn1c(-c2ccc(OCC#N)cc2F)c(CC(C)C)cc(Cl)c1=O [compound 127] | – | – | – | – | – | – | – | – | Test B control value class (Botrytis cinerea; Gray mold on tomato): H (more than 50% control value); Test A control value class (Magnaporthe grisea; Blast on rice): L (50% or less control value); Test G control value class (Plasmopara viticola; 250 ppm spray): H (more than 50% control value); Test E control value class (Puccinia recondita; [14]): H (more than 50% control value); Test F control value class (Phytophthora infestans; Late blight on tomato): L (50% or less control value); Test C control value class (Alternaia brassicicola; [15]): H (more than 50% control value); Test D control value class ([1]; Powdery mildew on barley): H (more than 50% control value); Test H control value class ([2]; 250 ppm spray): H (more than 50% control value)
CCOc1cc(F)c(-c2c(CN(C)OC)cc(Cl)c(=O)n2CC)c(F)c1 [Compound No. 93, 3-chloro-6-(4-ethoxy-2,6-difluorophenyl)-1-ethyl-5-((methoxy(methyl)amino)methyl)pyridin-2(1H)-one] | – | – | – | – | – | – | – | – | pest or weed control at 250 µg/mL (Botrytis cinerea; Botrytis cinerea, in Solanum lycopersicum, topical, read-out: Test B control value class): > 50%; pest or weed control at 250 µg/mL (Magnaporthe grisea; Pyricularia oryzae, in Oryza sativa, read-out: Test A control value class): > 50%; pest or weed control at 250 ppm (Plasmopara viticola; Plasmopara viticola, topical, read-out: Test G control value class): > 50%; pest or weed control at 250 µg/mL (Puccinia recondita; Puccinia recondita, topical, Brown rust on wheat, class of control value, read-out: Test E control value class): > 50%; pest or weed control at 250 µg/mL (Phytophthora infestans; Phytophthora infestans, in Solanum lycopersicum, topical, read-out: Test F control value class): < 50%; pest or weed control at 250 µg/mL (Alternaia brassicicola; Brassica oleracea, topical, Alternaria sooty spot on cabbage, class of control value, read-out: Test C control value class): > 50%; pest or weed control at 250 µg/mL ([1]; Blumeria graminis, in Hordeum vulgare, topical, read-out: Test D control value class): > 50%; pest or weed control at 250 ppm ([2]; Colletotrichum orbiculare, in Cucumis sativus, topical, read-out: Test H control value class): > 50%
CCn1c(-c2c(F)cc(F)cc2F)c(C(OC(C)=O)C2CC2)cc(Cl)c1=O (stereo not drawn) [compound 259] | H (more than 50% control value) | H (more than 50% control value) | H (more than 50% control value) | H (more than 50% control value) | L (50% or less control value) | H (more than 50% control value) | H (more than 50% control value) | H (more than 50% control value) | –
CCn1c(-c2ccccc2F)c(CC(C)C)cc(Cl)c1=O [compound 255] | H (more than 50% control value) | H (more than 50% control value) | L (50% or less control value) | H (more than 50% control value) | L (50% or less control value) | H (more than 50% control value) | H (more than 50% control value) | H (more than 50% control value) | –
CCn1c(-c2ccc(Br)cc2Cl)c(CC(C)C)cc(Cl)c1=O [compound 236] | H (more than 50% control value) | H (more than 50% control value) | L (50% or less control value) | H (more than 50% control value) | L (50% or less control value) | H (more than 50% control value) | H (more than 50% control value) | L (50% or less control value) | –
